Like-named read-outs stand apart in the source and are kept apart here.
What was measured:
BACE1 = BACE1 (Homo sapiens, UniProt P56817); experiment: In vitro enzymatic BACE FRET (fluorescence resonance energy transfer) assay; format: biochemical
Description: In Vitro Enzymatic BACE FRET (Fluorescence Resonance Energy Transfer) Assay (Enzyme Assay Data in Table 1)
The assay buffer used in this screen is 0.05 M acetate, pH 4.2, 10% DMSO final, 100 uM genapol (which is a nonionic detergent, below its Critical Micelle Concentration). […] The assay is effectively started by the addition of FRET substrate (50 nM) and the combination is incubated for one hour. The FRET assay is terminated with by addition of Tris buffer, which raises the pH to neutrality, and the fluorescence is determined. The FRET substrate is a peptide with commercially available fluorophore and quencher, on opposite sides of the BACE cleavage site. Proteolytic cleavage of the FRET substrate releases quenching of fluorescence (excitation […] and emission […]).

[1] = system: Cells stably expressing Amyloid Precursor Protein (APP); experiment: In vitro BACE cell-based assay (HEK cell assay): Aβ40 in conditioned medium by sandwich ELISA; settings: Homo sapiens
Description: In Vitro BACE Cell-Based Assay:
The cell-based assay measures inhibition or reduction of Aβ40 in conditioned medium of test compound treated cells expressing amyloid precursor protein.
Cells stably expressing Amyloid Precursor Protein (APP) were plated at a density of 40K cells/well in 96 well plates (Costar). The cells were cultivated for 24 hours at 37° C. and 5% CO2 in DMEM supplemented with 10% FBS. The test compounds were then added to cells in 10-point dose response concentrations with the starting concentration being either 100 μM or 10 μM. The compounds were diluted from stock solutions in DMSO and the final DMSO concentration of the test compounds on cells was 0.1%. After 24 h of incubation with the test compounds the supernatant conditioned media was collected and the Aβ 40 levels were determined using a sandwich ELISA. The IC50 of the compound was calculated from the percent of control or percent inhibition of Aβ 40 as a function of the concentration of the test compound.
The sandwich ELISA to detect Aβ 40 was performed in 96 well microtiter plates, which were pre-treated with goat anti-rabbit IgG (Pierce). The capture and detecting antibody pair that were used to detect Aβ 40 from cell supernatants were affinity purified pAb40 (Biosource) and biotinylated 6E10 (Signet Labs Inc.), respectively. The optimal concentration for the pAb40 antibody was 3 μg/ml in Superblock/TBS (Pierce) that was supplemented with 0.05% Tween 20 (Sigma). Optimal concentration for the detection antibody 6E10-biotinylated was 0.5 μg/ml in Superblock/TBS (Pierce) that had been supplemented with 2% normal goat serum and 2% normal mouse serum.
Cellular supernatants were incubated with the capture antibody for 3 h at 4° C., followed by 3 wash steps in TBS-tween (0.05%). The detecting antibody incubation was for 2 h at 4° C., again followed by the wash steps as described previously. The final readout of the ELISA is Time-Resolved Fluorescence (counts per minute) using Delfia reagents Streptavidin-Europium and Enhancement solutions (Perkin Elmer) and the Victor 2 multilabel counter (Perkin Elmer).
Of the compounds tested, in-the cell-based assay, data for each of Examples 33-156 is provided in Table 1 and Examples 208-246 are provided in Table 4.

[2] = HEK293, 24 h, Aβ40 in conditioned medium after 24 h incubation

BACE1, sequence (P56817 46-501, species assumed): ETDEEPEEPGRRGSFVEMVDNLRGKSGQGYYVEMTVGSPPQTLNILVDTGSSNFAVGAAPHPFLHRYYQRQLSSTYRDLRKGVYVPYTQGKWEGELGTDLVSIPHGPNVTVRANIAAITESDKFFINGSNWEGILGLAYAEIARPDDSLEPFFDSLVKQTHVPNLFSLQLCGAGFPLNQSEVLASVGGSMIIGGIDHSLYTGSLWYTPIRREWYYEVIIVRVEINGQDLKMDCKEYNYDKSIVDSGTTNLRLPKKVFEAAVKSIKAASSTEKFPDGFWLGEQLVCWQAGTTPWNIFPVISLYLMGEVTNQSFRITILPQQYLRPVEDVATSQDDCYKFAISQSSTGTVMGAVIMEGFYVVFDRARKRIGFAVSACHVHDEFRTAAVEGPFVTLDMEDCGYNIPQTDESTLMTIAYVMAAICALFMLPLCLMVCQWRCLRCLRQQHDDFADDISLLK

Compound	IC50 (BACE1)	IC50 [1, 2]	IC50 (BACE1; read-out: BACE 1 FRET assay)	IC50 ([1]; HEK293)
C=CC[C@H](NC(C)=O)[C@H](O)CN[C@H]1CC2(CCC2)Oc2c1cc(CC(C)(C)C)nc2N(C)C [Example 45, N-((1S)-1-((1R)-2-(((4′S)-8′-(dimethylamino)-6′-(2,2-dimethylpropyl)-3′,4′-dihydrospiro[cyclobutane-1,2′-pyrano[2,3-c]pyridin]-4′-yl)amino)-1-hydroxyethyl)-3-buten-1-yl)acetamide]	905 nM	6340 nM		
C=CC[C@H](NC(=O)COC)[C@H](O)CN[C@H]1CC2(CCC2)Oc2c1cc(CC(C)(C)C)nc2N1CCCC1 [Example 49, N-((1S)-1-((1R)-2-(((4′S)-6′-(2,2-dimethylpropyl)-8′-(1-pyrrolidinyl)-3′,4′-dihydrospiro[cyclobutane-1,2′-pyrano[2,3-c]pyridin]-4′-yl)amino)-1-hydroxyethyl)-3-buten-1-yl)-2-(methyloxy)acetamide]	84 nM	90 nM		
C=CC[C@H](NC(=O)COC)[C@H](O)CN[C@H]1CC2(CCC2)Oc2c1cc(CC(C)(C)C)nc2N(C)C [Example 48, N-((1S)-1-((1R)-2-(((4′S)-8′-(dimethylamino)-6′-(2,2-dimethylpropyl)-3′,4′-dihydrospiro[cyclobutane-1,2′-pyrano[2,3-c]pyridin]-4′-yl)amino)-1-hydroxyethyl)-3-buten-1-yl)-2-(methyloxy)acetamide]	365 nM	2820 nM		
CC#CC[C@H](NC(C)=O)[C@H](O)CN[C@H]1CC2(CCC2)Oc2ncc(CC(C)(C)C)cc21 [Example 86, N-((1S)-1-((1R)-2-(((4′S)-6′-(2,2-dimethylpropyl)-3′,4′-dihydrospiro[cyclobutane-1,2′-pyrano[2,3-b]pyridin]-4′-yl)amino)-1-hydroxyethyl)-3-pentyn-1-yl)acetamide]	69 nM	104 nM		
C=CC[C@H](NC(=O)c1cccnc1OC)[C@H](O)CN[C@H]1CC2(CCC2)Oc2ncc(CC(C)(C)C)cc21 [Example 65, N-((1S)-1-((1R)-2-(((4′S)-6′-(2,2-dimethylpropyl)-3′,4′-dihydrospiro[cyclobutane-1,2′-pyrano[2,3-b]pyridin]-4′-yl)amino)-1-hydroxyethyl)-3-buten-1-yl)-2-(methyloxy)-3-pyridinecarboxamide]	475 nM	258 nM		
C=CC[C@H](NC(=O)COC(C)C)[C@H](O)CN[C@H]1CC2(CCC2)Oc2ncc(CC(C)(C)C)cc21 [Example 145, N-((1S)-1-((1R)-2-(((4′S)-6′-(2,2-dimethylpropyl)-3′,4′-dihydrospiro[cyclobutane-1,2′-pyrano[2,3-b]pyridin]-4′-yl)amino)-1-hydroxyethyl)-3-buten-1-yl)-2-((1-methylethyl)oxy)acetamide]	77 nM	301 nM		
C=CC[C@H](NC(=O)c1ccc(OC)nc1)[C@H](O)CN[C@H]1CC2(CCC2)Oc2ncc(CC(C)(C)C)cc21 [Example 63, N-((1S)-1-((1R)-2-(((4′S)-6′-(2,2-dimethylpropyl)-3′,4′-dihydrospiro[cyclobutane-1,2′-pyrano[2,3-b]pyridin]-4′-yl)amino)-1-hydroxyethyl)-3-buten-1-yl)-6-(methyloxy)-3-pyridinecarboxamide]	215 nM	1400 nM		
C=CC[C@H](NC(=O)COC)[C@H](O)CNC1CC2(CC(F)(F)C2)Oc2ncc(CC(C)(C)C)cc21 (stereo partly drawn) [Example 41, N-((1S)-1-((1R)-2-((6′-(2,2-dimethylpropyl)-3,3-difluoro-3′,4′-dihydrospiro[cyclobutane-1,2′-pyrano[2,3-b]pyridin]-4′-yl)amino)-1-hydroxyethyl)-3-buten-1-yl)-2-(methyloxy)acetamide]	42 nM	127 nM		
C=CCC(NC(=O)C1CCC(=O)O1)C(O)CNC1CC2(CC(O)C2)Oc2ncc(CC(C)(C)C)cc21 [Example 112, (2S)-N-((1S)-1-((1R)-2-(((1s,3S,4′S)-6′-(2,2-dimethylpropyl)-3-hydroxy-3′,4′-dihydrospiro[cyclobutane-1,2′-pyrano[2,3-b]pyridin]-4′-yl)amino)-1-hydroxyethyl)-3-buten-1-yl)-5-oxotetrahydro-2-furancarboxamide]	2 nM	28 nM		
C#CC[C@H](NC(=O)c1cc(F)cc(F)c1)[C@H](O)CN[C@H]1CC2(CCC2)Oc2ncc(CC(C)(C)C)cc21 [Example 36, N-((1S)-1-((1R)-2-(((4′S)-6′-(2,2-dimethylpropyl)-3′,4′-dihydrospiro[cyclobutane-1,2′-pyrano[2,3-b]pyridin]-4′-yl)amino)-1-hydroxyethyl)-3-butyn-1-yl)-3,5-difluorobenzamide]	228 nM	4160 nM		
C=CC[C@H](NC(=O)[C@@H](F)C(F)(F)F)[C@H](O)CN[C@H]1CC2(CCC2)Oc2ncc(CC(C)(C)C)cc21 [Example 137, (2R)-N-((1S)-1-((1R)-2-(((4′S)-6′-(2,2-dimethylpropyl)-3′,4′-dihydrospiro[cyclobutane-1,2′-pyrano[2,3-b]pyridin]-4′-yl)amino)-1-hydroxyethyl)-3-buten-1-yl)-2,3,3,3-tetrafluoropropanamide]	79 nM	633 nM		
C=CC[C@H](NC(=O)c1cncs1)[C@H](O)CN[C@H]1CC2(CCC2)Oc2ncc(CC(C)(C)C)cc21 [Example 97, N-((1S)-1-((1R)-2-(((4′S)-6′-(2,2-dimethylpropyl)-3′,4′-dihydrospiro[cyclobutane-1,2′-pyrano[2,3-b]pyridin]-4′-yl)amino)-1-hydroxyethyl)-3-buten-1-yl)-1,3-thiazole-5-carboxamide]	61 nM	201 nM		
C=CC[C@H](NC(=O)c1cncnc1)[C@H](O)CN[C@H]1CC2(CCC2)Oc2ncc(CC(C)(C)C)cc21 [Example 68, N-((1S)-1-((1R)-2-(((4′S)-6′-(2,2-dimethylpropyl)-3′,4′-dihydrospiro[cyclobutane-1,2′-pyrano[2,3-b]pyridin]-4′-yl)amino)-1-hydroxyethyl)-3-buten-1-yl)-5-pyrimidinecarboxamide]	271 nM	709 nM		
C=CC[C@H](NC(=O)c1ccc(F)c(F)c1F)[C@H](O)CN[C@H]1CC2(CCC2)Oc2ncc(CC(C)(C)C)cc21 [Example 73, N-((1S)-1-((1R)-2-(((4′S)-6′-(2,2-dimethylpropyl)-3′,4′-dihydrospiro[cyclobutane-1,2′-pyrano[2,3-b]pyridin]-4′-yl)amino)-1-hydroxyethyl)-3-buten-1-yl)-2,3,4-trifluorobenzamide]	483 nM	2650 nM		
C=CC[C@H](NC(=O)c1cc(F)cc(F)c1)[C@H](O)CN[C@H]1CC2(CCC2)Oc2ncc(CC(C)(C)C)cc21 [Example 61, N-((1S)-1-((1R)-2-(((4′S)-6′-(2,2-dimethylpropyl)-3′,4′-dihydrospiro[cyclobutane-1,2′-pyrano[2,3-b]pyridin]-4′-yl)amino)-1-hydroxyethyl)-3-buten-1-yl)-3,5-difluorobenzamide]	5 nM	29.1 nM		
C=CC[C@H](NC(C)=O)[C@H](O)CN[C@H]1C[C@]2(CC[C@@H]2O)Oc2ncc(CC(C)(C)C)cc21 [Example 51, N-((1S)-1-((1R)-2-(((1S,2S,4′S)-6′-(2,2-dimethylpropyl)-2-hydroxy-3′,4′-dihydrospiro[cyclobutane-1,2′-pyrano[2,3-b]pyridin]-4′-yl)amino)-1-hydroxyethyl)-3-buten-1-yl)acetamide]	63 nM	212 nM		
C=CC[C@H](NC(=O)C1COC(c2ccccn2)O1)[C@H](O)CNC1CC2(CCC2)Oc2ncc(CC(C)(C)C)cc21 (stereo partly drawn) [compound 242, N-((1S)-1-((1R)-2-((6′-(2,2-dimethylpropyl)-3′,4′-dihydrospiro[cyclobutane-1,2′-pyrano[2,3-b]pyridin]-4′-yl)amino)-1-hydroxyethyl)-3-buten-1-yl)-2-(2-pyridinyl)-1,3-dioxolane-4-carboxamide]			3830 nM	691 nM
C=CC[C@H](NC(=O)c1c(F)ccc(F)c1F)[C@H](O)CN[C@H]1CC2(CCC2)Oc2ncc(CC(C)(C)C)cc21 [Example 75, N-((1S)-1-((1R)-2-(((4′S)-6′-(2,2-dimethylpropyl)-3′,4′-dihydrospiro[cyclobutane-1,2′-pyrano[2,3-b]pyridin]-4′-yl)amino)-1-hydroxyethyl)-3-buten-1-yl)-2,3,6-trifluorobenzamide]	253 nM	366 nM		
